Results as given in patent publication US11072635B2, “Macrocyclic broad spectrum antibiotics” (priority 2015, dated 2021).
Converted amounts (≈) assume the structure as drawn. Where two headings read alike, the source gives them in different places.

Columns and labels:
Type in all cases: cell-based
[1] = test system: Methicillin Resistant Staphylococcus aureus strain USA 300, NRS384 (S. aureus); assay: Minimum inhibitory concentration, broth micro-dilution (CLSI)
Procedure: (§1) In vitro antimicrobial activity of each compound was determined by measuring minimal inhibitor concentrations (MICs) using the broth micro-dilution technique as approved by the Clinical and Laboratory Standards Institute (CLSI) (Methods for Dilution Antimicrobial Susceptibility Tests for Bacteria that Grow Aerobically; Approved Standard—Eighth Edition. CLSI document M07-A8. Wayne, Pa.: Clinical and Laboratory Standards; 2009). Antibacterial activity was measure against three strains of bacteria: a Methicillin Resistant Staphylococcus aureus strain USA 300, NRS384 (S. aureus); a strain of Escherichia coli MC4100 harboring the IMP4213 (E. coli IMP), which results in increased outer-membrane permeability (B Martin and Silhavy T. Imp/OstA is required for cell envelope biogenesis in Escherichia coli. (2002) Molecular Microbiology, 45(5), 1289-1302), and Escherichia coli ATCC 25922 (E. coli), a clinically relevant Gram-negative strain. Cells were inoculated onto plates of Trypyticase Soy Agar or Luria Agar respectively and grown at 35° C. for 20 hours. Inocula suspensions were prepared by scraping cells into 1 mL of testing media (cation adjusted Mueller Hinton Broth supplemented with 0.002% v/v Tween-80) and diluting to a final OD600 nm of 0.01.
(§2) Test compounds were prepared in DMSO at a concentration of 10 mg/mL. […] In protocol 2, the compound stocks were diluted into testing media at a concentration of 4 μg/mL and serial 2-fold dilutions were made in the same media, in 96-well U bottom microtiter dishes, for a total of 10 compound concentrations. In protocol 3, compound stocks were diluted into testing media at a concentration of 0.5 μg/mL, with serial 2-fold dilutions conducted as described above. […] Inocula suspensions were added to the 2-fold serial dilutions of test compounds to a final density of OD OD600 nm of 0.0005 and incubated at 35° C. for 22 hours.

[2] = test system: Escherichia coli MC4100 harboring the IMP4213 (E. coli IMP); assay: microbe, parasite or virus in culture; details: 22 h, read-out: MIC (μg/mL) E. coli IMP
Procedure: as §1, §2

[3] = test system: Escherichia coli ATCC 25922 (E. coli); assay: Minimum inhibitory concentration, broth micro-dilution (CLSI); details: read-out: MIC (μg/mL) E. coli
Procedure: Cells were inoculated onto plates of Trypyticase Soy Agar or Luria Agar respectively and grown at 35° C. for 20 hours. Inocula suspensions were prepared by scraping cells into 1 mL of testing media (cation adjusted Mueller Hinton Broth supplemented with 0.002% v/v Tween-80) and diluting to a final OD600 nm of 0.01.
as §2

[4] = MRSA / NRS 384 / USA300, MRSA USA 300, NRS384, 35° C., 22 hours, cation adjusted Mueller Hinton Broth with 0.002% Tween-80, read-out: MIC (μg/mL) S. aureus
[5] = ATCC25922, E. coli ATCC 25922, 35° C., 22 hours
[6] = MRSA / NRS 384 / USA300, 22 h, read-out: MIC (μg/mL) S. aureus

| Compound | MIC [1, 4] | MIC [2] | MIC [3, 5] | MIC [1, 6] | MIC ([3]; ATCC25922, 22 h) |
| --- | --- | --- | --- | --- | --- |
| CCCCCCCc1ccc(C(=O)N[C@@H](CCN)C(=O)N(C)[C@@H]2C(=O)N[C@@H](C)C(=O)N[C@H](C(=O)NC/C=N/N3CC(=O)NC3=O)Cc3ccc(OCCN)c(c3)-c3cc2ccc3OCCN)c(C)c1 [Compound 101] | 0.094 µg/mL (≈ 0.0985 µM) | 0.031 µg/mL (≈ 0.0325 µM) | 4 µg/mL (≈ 4.19 µM) | – | – |
| CCCCCCCc1ccc(C(=O)N[C@@H](CCN)C(=O)N(C)[C@@H]2C(=O)N[C@@H](C)C(=O)N[C@H](C(=O)N[C@@H](C)/C=N/N3CC(=O)NC3=O)Cc3ccc(OCCN)c(c3)-c3cc2ccc3OCCN)c(C)c1 [Compound 102] | 0.13 µg/mL (≈ 0.134 µM) | 0.094 µg/mL (≈ 0.0971 µM) | 8 µg/mL (≈ 8.26 µM) | – | – |
| CCCCCCCc1ccc(C(=O)N[C@@H](CCN)C(=O)N(C)[C@@H]2C(=O)N[C@@H](C)C(=O)N[C@H](C(=O)O)Cc3ccc(OCCN)c(c3)-c3cc2ccc3OCCN)c(C)c1 [Compound 103] | – | 0.0078 µg/mL (≈ 0.00956 µM) | – | 0.17 µg/mL (≈ 0.208 µM) | 0.75 µg/mL (≈ 0.919 µM) |
| CCCCCCCc1ccc(C(=O)N[C@@H](CCN)C(=O)N(C)[C@@H]2C(=O)N[C@@H](C)C(=O)N[C@H](C(=O)NS(=O)(=O)CCl)Cc3ccc(OCCN)c(c3)-c3cc2ccc3OCCN)c(C)c1 [Compound 104] | 0.75 µg/mL (≈ 0.809 µM) | 0.023 µg/mL (≈ 0.0248 µM) | 4 µg/mL (≈ 4.31 µM) | – | – |
| CCCCCCCc1ccc(C(=O)N[C@@H](CCN)C(=O)N(C)[C@@H]2C(=O)N[C@@H](C)C(=O)N[C@H](C(=O)N[C@@H](C)C(=O)NOC(C)=O)Cc3ccc(OCCN)c(c3)-c3cc2ccc3OCCN)c(C)c1 [Compound 108] | – | 0.5 µg/mL (≈ 0.53 µM) | – | 0.75 µg/mL (≈ 0.794 µM) | 32 µg/mL (≈ 33.9 µM) |
| CCCCCCCc1ccc(C(=O)N[C@@H](CCN)C(=O)N(C)[C@@H]2C(=O)N[C@@H](C)C(=O)N[C@H](C(=O)NS(=O)(=O)O)Cc3ccc(OCCN)c(c3)-c3cc2ccc3OCCN)c(C)c1 [Compound 111] | – | 0.063 µg/mL (≈ 0.0704 µM) | – | 0.25 µg/mL (≈ 0.279 µM) | 8 µg/mL (≈ 8.94 µM) |
| CCCCCCCCc1ccc(C(=O)N[C@@H](CCN)C(=O)N(C)[C@@H]2C(=O)N[C@@H](C)C(=O)N[C@H](C(=O)NCC(=O)NCC#N)Cc3ccc(OCCN)c(c3)-c3cc2ccc3OCCN)c(C)c1 [Compound 114] | – | 0.13 µg/mL (≈ 0.141 µM) | – | 0.5 µg/mL (≈ 0.54 µM) | 8 µg/mL (≈ 8.65 µM) |
| CCCCCCOc1ccc(C(=O)N[C@@H](CCN)C(=O)N(C)[C@@H]2C(=O)N[C@@H](C)C(=O)N[C@H](C(=O)N[C@@H](C)C(=O)c3nnn[nH]3)Cc3ccc(OCCN)c(c3)-c3cc2ccc3OCCN)c(Cl)c1 [Compound 116] | – | 0.063 µg/mL (≈ 0.0655 µM) | – | 0.063 µg/mL (≈ 0.0655 µM) | 4 µg/mL (≈ 4.16 µM) |
| CCCCc1ccc(-c2ccc(C(=O)N[C@@H](CN)C(=O)N(C)[C@@H]3C(=O)N[C@@H](C)C(=O)N[C@H](C(=O)NC(C)=O)Cc4ccc(OCCN)c(c4)-c4cc3ccc4OCCN)cc2)cc1 [Compound 122] | – | 0.094 µg/mL (≈ 0.109 µM) | – | 1.5 µg/mL (≈ 1.74 µM) | 3 µg/mL (≈ 3.48 µM) |
| C=C(C#N)NC(=O)[C@@H]1Cc2ccc(OCCN)c(c2)-c2cc(ccc2OCCN)[C@H](N(C)C(=O)[C@H](CCCN)NC(=O)c2ccc(-c3ccc(CCCC)cc3)cc2)C(=O)N[C@@H](C)C(=O)N1 [Compound 130] | – | 0.13 µg/mL (≈ 0.144 µM) | – | 0.38 µg/mL (≈ 0.422 µM) | 6 µg/mL (≈ 6.67 µM) |
| CCCCc1ccc(-c2ccc(C(=O)N[C@@H](CN)C(=O)N(C)[C@@H]3C(=O)N[C@@H](C)C(=O)N[C@H](c4nsc(=O)[nH]4)Cc4ccc(OCCN)c(c4)-c4cc3ccc4OCCN)cc2)cc1 [Compound 132] | – | 0.25 µg/mL (≈ 0.285 µM) | – | 4 µg/mL (≈ 4.56 µM) | 8 µg/mL (≈ 9.11 µM) |
| CCCCCCCc1ccc(C(=O)N[C@@H](CCN)C(=O)N(C)[C@@H]2C(=O)N[C@@H](C)C(=O)N[C@H](C(=O)N[C@@H](C)C(=O)Oc3ccccc3)Cc3ccc(OCCN)c(c3)-c3cc2ccc3OCCN)c(C)c1 [Compound 148] | 0.5 µg/mL (≈ 0.519 µM) | – | 15.8 µg/mL (≈ 16.5 µM) | – | – |
| CCCCCCCc1ccc(C(=O)N[C@@H](CCN)C(=O)N(C)[C@@H]2C(=O)N[C@@H](C)C(=O)N[C@H](C(=O)N[C@@H](C)C(=O)NOC(N)=O)Cc3ccc(OCCN)c(c3)-c3cc2ccc3OCCN)c(C)c1 [Compound 149] | 0.25 µg/mL (≈ 0.265 µM) | – | 16.1 µg/mL (≈ 17.1 µM) | – | – |
| CCCCCCCc1ccc(C(=O)N[C@@H](CCN)C(=O)N(C)[C@@H]2C(=O)N[C@@H](C3CC3)C(=O)N[C@H](C(=O)N[C@@H](C)C(C)=O)Cc3ccc(OCCN)c(c3)-c3cc2ccc3OCCN)c(C)c1 [Compound 150] | 0.068 µg/mL (≈ 0.0746 µM) | – | 4.39 µg/mL (≈ 4.82 µM) | – | – |
